Experimental findings from US10670609B2, “Ytterbium as a surrogate cation to measure calcium flux” (Government of the United States, as represented by the …, priority 2017, dated 2020) are described below.

The subject of this test is Human retinal pigmented epithelium cells (RPE). Kind of test: NO bioassay: DAF-FM DA fluorescence as indicator of NO in RPE cells. In kind it is cell-based.
[1] abbreviates: RPE cells in PBS supplemented with Ca2+ and Mg2+.
The mark [2] stands for this setting: RPE cells without calcium (calcium-free PBS).
Setting [3] is: Table 3, DAF-FM DA NO fluorescence change vs control, WT RPE cells in PBS with 5 mM Ca2+ + Mg2+ + 8 mM pyruvate, agent 300 ppm unless stated.

Where two headings read alike, the source gives them in different places.

With `CC(=O)OCOC(=O)CN(CC(=O)OCOC(C)=O)c1ccccc1OCCOc1ccccc1N(CC(=O)OCOC(C)=O)CC(=O)OCOC(C)=O` [BAPTA, 1,2-Bis(2-amino-phenoxy)ethane-N,N,N′,N′-tetraacetic acid tetrakis (acetoxymethyl ester)], the “NO level (DAF-FM DA fluorescence) relative to control, in words” value is recorded as “lower” and the “[(E − C)/C] × 100 (N = 6, A.U. %)” value amounted to 11%.

As for `[Fe+3]` [Fe^3+], the “NO level (DAF-FM DA fluorescence) relative to control, in words” value under setting [1] is listed as “dropped by varying degrees” and the “NO level (DAF-FM DA fluorescence) relative to control, in words” value under setting [2] was “could not be restored”. Also, the “[(E − C)/C] × 100 (N = 3, A.U. %)” value under setting [3] is on record as −93%.

Regarding `[Ce+3]` [Ce^3+], the “NO level (DAF-FM DA fluorescence) relative to control, in words” value under setting [1] is reported as “dropped by varying degrees” and the “NO level (DAF-FM DA fluorescence) relative to control, in words” value under setting [2] is “could not be restored”. For the same molecule, under setting [3], the “[(E − C)/C] × 100 (N = 3, A.U. %)” value was −96%.

With `[Pr+3]` [Pr^3+], the “NO level (DAF-FM DA fluorescence) relative to control, in words” value is “dropped by varying degrees” under setting [1] and “could not be restored” under setting [2]. For the same molecule, the “[(E − C)/C] × 100 (N = 3, A.U. %)” value under setting [3] is recorded as −91%. The “decrease of NO (low DAF-FM DA fluorescence), modal” value (addition of agent to RPE cells, Table 3) is 91%.

Regarding `O=NO` [Nitrite, sodium nitrite], the “NO level (DAF-FM DA fluorescence) relative to control, in words” value is given as “increased relative to control” and the “[(E − C)/C] × 100 (N = 3, A.U. %)” value was found to be 2%.

Turning to `O=C1c2c(O)cccc2Cc2cccc(O)c21` [Dithranol], the “[(E − C)/C] × 100 (N = 3, A.U. %)” value under setting [3] is −69%.

For the molecule `[Ca+2].[Cl-].[Cl-]` [Ca^2+, calcium chloride], the “NO level (DAF-FM DA fluorescence) relative to control, in words” value is reported as “slight decrease in NO”.
